For 13 compounds, melting point, inhibition and IC50 results are on record in publication PMC10142505, “Synthesis, Evaluation of Enzyme Inhibition and Redox Properties of Potential Dual COX-2 and 5-LOX Inhibitors” (Pharmaceuticals, 2023).

Data set [1] has as its target T1, COX-1 ovine enzyme (Ovis aries, UniProt P05979).
T1 construct: purchased Abcam ab204698
T1 sequence (P05979 25-600): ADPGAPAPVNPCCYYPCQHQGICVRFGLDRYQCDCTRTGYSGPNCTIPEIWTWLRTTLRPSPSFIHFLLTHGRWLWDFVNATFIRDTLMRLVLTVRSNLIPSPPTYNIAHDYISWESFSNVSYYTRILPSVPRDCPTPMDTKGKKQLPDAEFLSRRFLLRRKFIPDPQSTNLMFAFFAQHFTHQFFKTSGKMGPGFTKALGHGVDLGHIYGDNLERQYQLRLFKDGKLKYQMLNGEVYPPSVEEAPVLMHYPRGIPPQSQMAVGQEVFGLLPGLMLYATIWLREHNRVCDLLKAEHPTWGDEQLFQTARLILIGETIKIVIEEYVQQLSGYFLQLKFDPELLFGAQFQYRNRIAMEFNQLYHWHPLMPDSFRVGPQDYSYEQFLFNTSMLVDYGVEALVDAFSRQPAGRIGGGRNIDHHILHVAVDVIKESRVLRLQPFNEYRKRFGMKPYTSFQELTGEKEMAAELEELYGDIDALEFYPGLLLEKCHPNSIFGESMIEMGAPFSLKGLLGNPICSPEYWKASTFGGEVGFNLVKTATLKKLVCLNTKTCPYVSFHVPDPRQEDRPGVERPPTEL
Kind of data set: Fluorometric COX-1 inhibitor screening kit. Format: biochemical. The note with it: for inhibition at 100 µM: at 100 µM concentration; for IC50: fluorometric kit. The method, then:
The COX-1 and COX-2 inhibitory activates of the synthesized compounds were tested using fluorometric COX-1 (Catalog Number: ab204698) and COX-2 (Catalog Number: ab283401) inhibitor screening kits (Abcam, United Kingdom). These assays are based on the fluorometric detection of Prostaglandin G2, generated by the COX enzyme. The experiment was conducted according to the manufacturer’s instructions. Each assay consists of a COX Assay Buffer, COX Probe (in DMSO), COX Cofactor (in DMSO), arachidonic acid and NaOH. The COX-1 inhibitor screening kit contains COX-1 ovine enzyme and COX-1 inhibitor SC560 (dissolved in DMSO), while the COX-2 inhibitor screening kit contains COX-2 human recombinant enzyme and COX-2 inhibitor Celecoxib (dissolved in DMSO). The tested compounds were dissolved in DMSO and further diluted five times with the COX Assay Buffer. The Inhibitor Control (IC) was prepared by adding 2 µL of COX-1/COX-2 inhibitor and 8 µL of COX Assay Buffer into assigned wells, while the Solvent Control (SC) was prepared by adding 2 µL of DMSO and 8 µL of COX Assay Buffer into assigned wells and the Sample (S) and Enzyme Control (EC) were prepared by adding 10 µL of diluted tested compounds or COX Assay Buffer into assigned wells. The Reaction Master Mix (COX Assay Buffer, COX Probe, Diluted COX Cofactor and COX-1/COX-2 Enzyme) was prepared according to instructions and 80 µL of the Reaction Master Mix was added into each well. Meanwhile, a diluted arachidonic acid/NaOH solution was prepared and 10 µL was added into each well using a multi-channel pipette to initiate all the reactions at the same time. The fluorescence values (Ex/Em = 535/587 nm) of the samples were kinetically measured at 25 °C for 5–10 min. The EC, SC, IC and tested compounds at all concentrations were analyzed in triplicates. Two points (T1 and T2) in the linear range of the plot were chosen and corresponding fluorescence values (RFU1 and RFU2) were obtained. The slope for all samples was calculated by dividing ΔRFU (RFU2-RFU1) by time Δt (T2−T1). The percentage of inhibition was calculated as follows: % Relative Inhibition=Slope of EC−Slope of S/Slope of EC∗100
Fluorescence measurements were performed on a BioTek Synergy LX multi-mode reader (Winooski, VT, USA).

`COC(=O)C(Cc1c[nH]cn1)NC(=O)c1cc(C(C)(C)C)c(O)c(C(C)(C)C)c1` (stereo not shown) [Compound 4, 2-(3,5-di-tert-butyl-4-hydroxy-benzoylamino)-3-(1H-imidazol-4-yl)-propionic acid methyl ester] registered a melting point of 117 to 119 °C.
As to `CN(C)C(=O)Nc1ccccc1C(=O)O` [Compound 9, 2-(3,3-dimethyl-ureido)-benzoic acid], the melting point fell in the range of 158 to 159.5 °C.
Turning to `C=CCNC(=O)c1cc(C(C)(C)C)c(O)c(C(C)(C)C)c1` [Compound 6, N-allyl-3,5-di-tert-butyl-4-hydroxy-benzamide], the melting point is 182 to 183.5 °C. In addition, in data set [1], the inhibition at 100 µM is < 50% and the IC50 was > 100 µM.
`COc1ccc2cc(C(C)N(O)C(C)=O)ccc2c1` (stereo not shown) [Compound 12, N-hydroxy-N-[1-(6-methoxy-naphthalen-2-yl)-ethyl]-acetamide]: in data set [1], the inhibition at 100 µM was < 50% and the IC50 is > 100 µM.
Compound `CC(C)(C)c1cc(C=C2SC(=S)N(N)C2=O)cc(C(C)(C)C)c1O` [Compound 13, 3-amino-5-(3,5-di-tert-butyl-4-hydroxy-benzylidene)-2-thioxo-thiazolidin-4-one] yielded a melting point of 244.5 to 246.5 °C.
The compound `COC(=O)CNC(=O)c1cc(C(C)(C)C)c(O)c(C(C)(C)C)c1` [Compound 5, (3,5-di-tert-butyl-4-hydroxy-benzoylamino)-acetic acid methyl ester] yielded a melting point of 130 to 132 °C. Further, in data set [1], the inhibition at 100 µM was < 50% and the IC50 was > 100 µM.
For the compound `COc1ccc2c(c1)c(CNC(=O)NO)c(C)n2C(=O)c1ccc(Cl)cc1` [Compound 1, N’-hydroxy-N-[(1-(4-chlorobenzoyl)-5-methoxy-2-methyl-3-indolyl)methyl]urea], in data set [1], the inhibition at 100 µM was < 50% and the IC50 was > 100 µM.
With `CC(=O)N(O)C(C)c1ccc(CC(C)C)cc1` (stereo not shown) [Compound 11], in data set [1], the inhibition at 100 µM was < 50% and the IC50 was > 100 µM.
In turn, `CCOc1ccccc1NC(=O)Nc1ccc([N+](=O)[O-])cc1` [Compound 10, 1-(2-ethoxy-phenyl)-3-(4-nitro-phenyl)-urea] gave a melting point of 178 to 181 °C.
As to `O=C(NO)NCc1ccccc1Nc1c(Cl)cccc1Cl` [Compound 3, N’-hydroxy-N-[(2-(2,6-dichloroanilino)phenyl)methyl]urea], in data set [1], the inhibition at 100 µM was < 50% and the IC50 is > 100 µM.
Take `CC(NC(=O)NO)c1ccc(-c2ccccc2)c(F)c1` (stereo not shown) [Compound 2]: in data set [1], the inhibition at 100 µM was < 50% and the half-inhibitory concentration (IC50) was > 100 µM.
Consider `CCOc1ccccc1NC(=O)N(C)C` [Compound 8, 3-(2-ethoxy-phenyl)-1,1-dimethyl-urea], for which the melting point lay in the range of 71.5 to 72.5 °C.
Consider `C#CCNC(=O)c1cc(C(C)(C)C)c(O)c(C(C)(C)C)c1` [Compound 7, 3,5-di-tert-butyl-4-hydroxy-N-prop-2-ynyl-benzamide], for which the melting point lay within 178.5 to 180 °C.

By melting point is commonly meant the temperature of the solid-liquid transition. As usually defined, the inhibition is the share of the control response that was lost under treatment. The term IC50 denotes the point on the concentration scale where inhibition reaches its midpoint.
